Assay results from patent publication US20040043380A1, “T cell line and use thereof” (priority 2000, published 2004).
Where two headings read alike, the source gives them in different places.

Tested on: HIV-1 BaL strain
Test: Anti-HIV-1 activity: alkaline phosphatase reporter in MOLT-4/CCR5/LTR-SEAP cells infected with HIV-1 BaL strain
Type: cell-based
Settings: for EC50: read-out: EC50 (activity of inhibiting viral growth by 50%); for EC90: read-out: EC90 (activity of inhibiting viral growth by 90%)
Protocol: The alkaline phosphatase activity was measured by using Great EscAPe SEAP Detection Kit manufactured by Clontech. Fifty microliters of a diluent was added to 15 μl of the culture supernatant and incubated at 65° C. for 30 minutes. The reaction solution was cooled to room temperature, and then 50 μl of the reaction solution was transferred to a white plate, and 50 μl of an assay buffer was added thereto and incubated at room temperature for 5 minutes. Fifty microliters of a luminescence substrate was added thereto, incubated at room temperature for 10 minutes, and measured for chemiluminescence by a luminometer.
A mixture of 2×10^4of MOLT-4/CCR5/LTR-SEAP cells, 1000 CCID50 (cell culture infective dose 50%) of the virus and a test compound (Table 1) at various concentrations was cultured at 37° C. in 5% CO2 gas for 5 days. A quarter of the culture was subcultured for 5 days. On the tenth day after the infection, the culture supernatant was recovered, and the alkaline phosphatase activity was measured. The anti-HIV-1 activity (the inhibition rate) of a test compound was calculated from the following formula:
Inhibition rate (%)=(1−(chemiluminescence^1/chemiluminescence^2))×100
Chemiluminescence^1=chemiluminescence with addition of a test compound (ii)−chemiluminescence without viral infection (iii).
Chemiluminescence^2=chemiluminescence without addition of a test compound (i)−chemiluminescence without viral infection (iii).

[1] = Human immunodeficiency virus 1, BAL
[2] = MOLT-4/CCR5/LTR-SEAP cells, 1000 CCID50 HIV-1 BaL strain, alkaline phosphatase activity in culture supernatant on tenth day after infection

EC50 [2] [nM]	EC90 [2] [nM]	SMILES	EC50 [1] [nM]	EC90 [1] [nM]	EC50 (Human immunodeficiency virus 1, MOLT-4/CCR5/LTR-SEAP cells, 1000 CCID50 HIV-1 BaL strain, alkaline phosphatase activity in culture supernatant on tenth day after infection) [nM]
		Cc1cn([C@H]2C=C[C@@H](CO)O2)c(=O)[nH]c1=O [Compound 1, 2′,3′-didehydro-3′-deoxythymidine]	16	260	
		Cc1ccnc2c1NC(=O)c1cccnc1N2C1CC1 [Compound 2, 11-cyclopropyl-5,11-dihydro-4-methyl-6H-dipyrido[3,2-b:2′,3′-e] [1,4]diazepin-6-one]		350	40
		Cc1c(O)cccc1C(=O)N[C@@H](CSc1ccccc1)[C@H](O)CN1C[C@H]2CCCC[C@H]2C[C@H]1C(=O)NC(C)(C)C [Compound 3, (-)-(3S,4aS,8aS)-N-tert-butyl-2-[(2R,3R)-2-hydroxy-3-(3-hydroxy-2-methylbenzoylamino)-4-(phenylthio)butyl]decahydroisoquinoline-3-carboxamide monomethanesulfonate]	0.67	170	
21	680	Cc1ccc(-c2ccc3c(c2)C=C(C(=O)Nc2ccc(C[N+](C)(C)C4CCOCC4)cc2)CCC3)cc1 [Compound 4, N,N-dimethyl-N-(4-(((2-(4-methylphenyl)-6,7-dihydro-5H-benzocyclohepten-8-yl)carbonyl)-N-(4-tetrahydropyranyl)ammonium chloride]			
